Columns and labels:
[1] = molecular target: T1, PTGER2 (EP2) (Homo sapiens, UniProt P43116); assay: hEP2 b-arrestin assay (PathHunter HEK 293 PTGER2 b-arrestin cells); assay type: cell-based; details: antagonistic activity, beta-arrestin assay; read-out: hEP2 b-arr IC50
T1 construct: host or cells: HEK 293 (PathHunter PTGER2 b-arrestin cell line)
Procedure, shortened: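 PathHunter HEK293 cells with ProLink-tagged EP2 and EA-β-arrestin 2 preincubated 15 min at 37 °C with compound (10 μM-2 nM or 1 μM-0.2 nM), then stimulated 120 min with 5 μM PGE2 (EC80). β-gal complementation read by chemiluminescence; IC50 from duplicate dose-response versus DMSO.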

[2] = molecular target: T2, PTGER4 (EP4) (Homo sapiens, UniProt P35408); assay: hEP4 b-arrestin assay (PathHunter HEK 293 PTGER4 b-arrestin cells); assay type: cell-based; details: antagonistic activity, beta-arrestin assay; read-out: hEP4 b-arr IC50
T2 construct: host or cells: HEK 293 (PathHunter PTGER4 b-arrestin cell line)
T2 sequence (P35408 whole entry): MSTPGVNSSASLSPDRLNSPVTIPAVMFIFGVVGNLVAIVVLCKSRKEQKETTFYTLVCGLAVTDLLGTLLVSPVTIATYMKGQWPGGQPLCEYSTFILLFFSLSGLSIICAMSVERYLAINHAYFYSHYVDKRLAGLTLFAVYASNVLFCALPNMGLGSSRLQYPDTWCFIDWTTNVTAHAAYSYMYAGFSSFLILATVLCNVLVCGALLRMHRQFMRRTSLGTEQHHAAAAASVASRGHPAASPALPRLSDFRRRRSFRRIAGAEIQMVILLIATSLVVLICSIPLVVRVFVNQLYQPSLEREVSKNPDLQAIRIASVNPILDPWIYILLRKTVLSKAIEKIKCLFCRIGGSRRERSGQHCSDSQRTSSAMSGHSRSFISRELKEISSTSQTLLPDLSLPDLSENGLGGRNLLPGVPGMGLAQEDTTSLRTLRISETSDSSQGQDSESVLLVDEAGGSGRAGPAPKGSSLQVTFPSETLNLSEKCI
Procedure, shortened: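 PathHunter HEK 293 cells expressing ProLink-tagged human EP4 and EA-β-arrestin 2, seeded 24 h before. Compounds (10 μM–2 nM or 1 μM–0.2 nM) preincubated 15 min at 37 °C, then 20 nM PGE2 (EC80) for 120 min at 37 °C. β-gal complementation luminescence read; IC50 from duplicate dose-response curves versus DMSO control.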

T1 sequence (P43116 whole entry): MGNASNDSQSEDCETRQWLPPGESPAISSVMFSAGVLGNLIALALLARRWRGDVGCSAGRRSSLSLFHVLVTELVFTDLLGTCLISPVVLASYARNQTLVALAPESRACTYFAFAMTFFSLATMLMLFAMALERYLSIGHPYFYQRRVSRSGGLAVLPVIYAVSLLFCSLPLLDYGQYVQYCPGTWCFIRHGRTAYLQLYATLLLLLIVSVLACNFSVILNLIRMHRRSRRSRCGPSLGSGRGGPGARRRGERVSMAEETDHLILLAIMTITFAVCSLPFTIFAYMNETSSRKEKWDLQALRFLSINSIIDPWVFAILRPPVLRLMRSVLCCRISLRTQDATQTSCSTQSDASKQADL

| Compound | IC50 [1] [nM] | IC50 [2] [nM] |
| --- | --- | --- |
| COc1cc(Cl)cc2c(CCNc3cc(-c4ccc(C(=O)O)c(OC5CCC5)c4F)ncn3)c(C)oc12 [Example 147, 4-{6-[2-(5-Chloro-7-methoxy-2-methyl-benzofuran-3-yl)-ethylamino]-pyrimidin-4-yl}-2-cyclobutoxy-3-fluoro-benzoic acid] | 213 | 873 |
| Cc1sc2c(C)cc(F)cc2c1CCNc1cc(-c2ccc(CC(=O)O)c(CC(C)C)c2)ncn1 [Example 182, (4-{6-[2-(5-Fluoro-2,7-dimethyl-benzo[b]thiophen-3-yl)-ethylamino]-pyrimidin-4-yl}-2-isobutyl-phenyl)-acetic acid] | 41 | 164 |
| Cc1sc2c(C)cc(F)cc2c1CCNc1cc(-c2ccc(C(=O)O)c(OCC(C)C)c2)ncn1 [Example 184, 4-{6-[2-(5-Fluoro-2,7-dimethyl-benzo[b]thiophen-3-yl)-ethylamino]-pyrimidin-4-yl}-2-isobutoxy-benzoic acid] | 7 | 311 |
| COc1cc(F)c(F)c2c(CCNc3cc(-c4ccc(C(=O)O)c(OC5CCC5)c4)ncn3)c(C)oc12 [Example 141, 2-Cyclobutoxy-4-{6-[2-(4,5-difluoro-7-methoxy-2-methyl-benzofuran-3-yl)-ethylamino]-pyrimidin-4-yl}-benzoic acid] | 140 | 340 |
| Cc1cc(F)cc2c(CCNc3cc(-c4ccc(C(=O)O)c(OC(C)C)c4)ncn3)c(C#N)sc12 [Example 172, 4-{6-[2-(2-Cyano-5-fluoro-7-methyl-benzo[b]thiophen-3-yl)-ethylamino]-pyrimidin-4-yl}-2-isopropoxy-benzoic acid] | 40 | 166 |
| Cc1oc2c(C)cc(F)cc2c1CCNc1cc(-c2ccc(C(=O)O)c(OC3CCC3)c2)ncn1 [Example 140, 2-Cyclobutoxy-4-{6-[2-(5-fluoro-2,7-dimethyl-benzofuran-3-yl)-ethylamino]-pyrimidin-4-yl}-benzoic acid] | 37 | 1420 |
| COc1ccc(Cl)c2c(CCNc3cc(-c4cc(C)c(C(=O)O)s4)ncn3)c(C)sc12 [Example 5, 5-{6-[2-(4-Chloro-7-methoxy-2-methyl-benzo[b]thiophen-3-yl)-ethylamino]-pyrimidin-4-yl}-3-methyl-thiophene-2-carboxylic acid] | 106 | 247 |
| CCCOc1cc(-c2cc(NCCc3c(C)sc4c(C)c(F)ccc34)ncn2)ccc1C(=O)O [Example 99, 4-{6-[2-(6-Fluoro-2,7-dimethyl-benzo[b]thiophen-3-yl)-ethylamino]-pyrimidin-4-yl}-2-propoxy-benzoic acid] | 5 | 238 |
| CCOc1cc(-c2cc(NCCc3c(C)sc4c(OC)ccc(F)c34)ncn2)ccc1OCC(=O)O [Example 117, (2-Ethoxy-4-{6-[2-(4-fluoro-7-methoxy-2-methyl-benzo[b]thiophen-3-yl)-ethylamino]-pyrimidin-4-yl}-phenoxy)-acetic acid] | 20 | 23 |
| Cc1sc2c(C)cccc2c1CCNc1cc(-c2ccc(C(=O)O)c(SC3CCC3)c2)ncn1 [Example 130, 2-Cyclobutylsulfanyl-4-{6-[2-(2,7-dimethyl-benzo[b]thiophen-3-yl)-ethylamino]-pyrimidin-4-yl}-benzoic acid] | 12 | 193 |
| CCc1oc2c(C)cc(F)cc2c1CCNc1cc(-c2cc(C)c(C(=O)O)s2)ncn1 [Example 7, 5-{6-[2-(2-Ethyl-5-fluoro-7-methyl-benzofuran-3-yl)-ethylamino]-pyrimidin-4-yl}-3-methyl-thiophene-2-carboxylic acid] | 283 | 577 |
| Cc1sc2c(C)cccc2c1CCNc1cc(-c2ccc(C(=O)O)c(SC3COC3)c2)ncn1 [Example 131, 4-{6-[2-(2,7-Dimethyl-benzo[b]thiophen-3-yl)-ethylamino]-pyrimidin-4-yl}-2-(oxetan-3-ylsulfanyl)-benzoic acid] | 12 | 1220 |
| CCCc1cc(-c2cc(NCCc3c(C#N)sc4c(C)cc(F)cc34)ncn2)ccc1C(=O)O [Example 167, 4-{6-[2-(2-Cyano-5-fluoro-7-methyl-benzo[b]thiophen-3-yl)-ethylamino]-pyrimidin-4-yl}-2-propyl-benzoic acid] | 5 | 34 |
| CCc1nc(-c2cc(NCCc3c(C)sc4c(C)cc(F)cc34)ncn2)sc1C(=O)O [Example 161, 4-Ethyl-2-{6-[2-(5-fluoro-2,7-dimethyl-benzo[b]thiophen-3-yl)-ethylamino]-pyrimidin-4-yl}-thiazole-5-carboxylic acid] | 61 | 256 |
| Cc1sc2c(C)cc(F)cc2c1CCNc1cc(-c2ccc(C(=O)O)c(OC3CCCC3)c2)ncn1 [Example 152, 2-Cyclopentyloxy-4-{6-[2-(5-fluoro-2,7-dimethyl-benzo[b]thiophen-3-yl)-ethylamino]-pyrimidin-4-yl}-benzoic acid] | 27 | 337 |
| CCOc1cc(-c2cc(NCCc3c(C)oc4c(OC)cc(Cl)cc34)ncn2)ccc1OCC(=O)O [Example 121, (4-{6-[2-(5-Chloro-7-methoxy-2-methyl-benzofuran-3-yl)-ethylamino]-pyrimidin-4-yl}-2-ethoxy-phenoxy)-acetic acid] | 27 | 75 |
| COc1cc(F)c(F)c2c(CCNc3cc(-c4cc(F)c(C(=O)O)c(OC5CCC5)c4)ncn3)c(C)oc12 [Example 150, 2-Cyclobutoxy-4-{6-[2-(4,5-difluoro-7-methoxy-2-methyl-benzofuran-3-yl)-ethylamino]-pyrimidin-4-yl}-6-fluoro-benzoic acid] | 109 | 363 |
| CCCOc1cc(-c2cc(NCCc3c(C)sc4c(C)cc(F)cc34)ncn2)ccc1C(=O)O [Example 100, 4-{6-[2-(5-Fluoro-2,7-dimethyl-benzo[b]thiophen-3-yl)-ethylamino]-pyrimidin-4-yl}-2-propoxy-benzoic acid] | 12 | 299 |
| COc1ccc(Cl)c2c(CCNc3cc(-c4ccc(C(=O)O)c(OC(F)F)c4)ncn3)c(C)sc12 [Example 116, 4-{6-[2-(4-Chloro-7-methoxy-2-methyl-benzo[b]thiophen-3-yl)-ethylamino]-pyrimidin-4-yl}-2-difluoromethoxy-benzoic acid] | 30 | 297 |
| Cc1oc2ccccc2c1CCNc1cc(-c2ccc(C(=O)O)c(SC3CCC3)c2)ncn1 [Example 129, 2-Cyclobutylsulfanyl-4-{6-[2-(2-methyl-benzofuran-3-yl)-ethylamino]-pyrimidin-4-yl}-benzoic acid] | 6 | 1410 |
| Cc1oc2c(C)cc(F)cc2c1CCNc1cc(-c2ccc(C(=O)O)c(OC3CCCC3)c2)ncn1 [Example 154, 2-Cyclopentyloxy-4-{6-[2-(5-fluoro-2,7-dimethyl-benzofuran-3-yl)-ethylamino]-pyrimidin-4-yl}-benzoic acid] | 47 | 911 |
| COc1ccc(Cl)c2c(CCNc3cc(-c4ccc(C(=O)O)c(OC5CCCC5)c4)ncn3)c(C)sc12 [Example 153, 4-{6-[2-(4-Chloro-7-methoxy-2-methyl-benzo[b]thiophen-3-yl)-ethylamino]-pyrimidin-4-yl}-2-cyclopentyloxy-benzoic acid] | 46 | 157 |
| COc1ccc(F)c2c(CCNc3cc(-c4ccc(C(=O)O)c(OC5CCC5)c4F)ncn3)c(C)sc12 [Example 146, 2-Cyclobutoxy-3-fluoro-4-{6-[2-(4-fluoro-7-methoxy-2-methyl-benzo[b]thiophen-3-yl)-ethylamino]-pyrimidin-4-yl}-benzoic acid] | 47 | 357 |
| CCOc1cc(-c2cc(NCCc3c(C)sc4c(C)ccc(F)c34)ncn2)cc(C)c1C(=O)O [Example 103, 2-Ethoxy-4-{6-[2-(4-fluoro-2,7-dimethyl-benzo[b]thiophen-3-yl)-ethylamino]-pyrimidin-4-yl}-6-methyl-benzoic acid] | 79 | 521 |
| CCOc1nc(-c2cc(NCCc3c(C)sc4c(C)cc(F)cc34)ncn2)sc1-c1noc(=O)[nH]1 [Example 162, 3-(4-Ethoxy-2-{6-[2-(5-fluoro-2,7-dimethyl-benzo[b]thiophen-3-yl)-ethylamino]-pyrimidin-4-yl}-thiazol-5-yl)-[1,2,4]oxadiazol-5(4H)-one [tautomeric form: 3-(4-ethoxy-2-(6-((2-(5-fluoro-2,7-dimethylbenzo[b]thiophen-3-yl)ethyl)amino)pyrimidin-4-yl)thiazol-5-yl)-[1,2,4]oxadiazol-5-ol]] | 6 | 5 |
| CCCOc1cc(-c2cc(NCCc3c(C)sc4c(OC)ccc(Cl)c34)ncn2)ccc1C(=O)O [Example 101, 4-{6-[2-(4-Chloro-7-methoxy-2-methyl-benzo[b]thiophen-3-yl)-ethylamino]-pyrimidin-4-yl}-2-propoxy-benzoic acid] | 22 | 505 |
| COc1cc(Cl)cc2c(CCNc3cc(-c4cc(F)c(C(=O)O)c(OC5CCC5)c4)ncn3)c(C)oc12 [Example 151, 4-{6-[2-(5-Chloro-7-methoxy-2-methyl-benzofuran-3-yl)-ethylamino]-pyrimidin-4-yl}-2-cyclobutoxy-6-fluoro-benzoic acid] | 60 | 163 |
| O=C(O)c1ccc(-c2cc(NCCc3csc4ccccc34)ncn2)cc1OC1CCC1 [Example 132, 4-[6-(2-Benzo[b]thiophen-3-yl-ethylamino)-pyrimidin-4-yl]-2-cyclobutoxy-benzoic acid] | 58 | 561 |

Reference: patent US11325899B2, “Benzofurane and benzothiophene derivatives as PGE2 receptor modulators” (IDORSIA PHARMACEUTICALS LTD, priority 2017, dated 2022)
